Experimental findings from ChEMBL document CHEMBL3792319, “Synthesis and antitubercular activity of 1,2,4-trisubstitued piperazines” (Bioorg Med Chem Lett, 2016) are described below.

In assay [1] the test system is Mycobacterium tuberculosis. Kind of assay: Antitubercular activity against Mycobacterium tuberculosis H37Rv measured after 7 days under aerobic condition. Type of assay: functional, organism-based. The conditions noted are these: 168 h.
The subject of assay [2] is Mycobacterium tuberculosis. Description: Antimicrobial activity against Mycobacterium tuberculosis H37Rv expressing bacterial luciferase measured after 10 days under hypoxia condition by LORA assay. To be noted: 240 h. Type of assay: functional.
Assay [3] concerns Mycobacterium tuberculosis. Kind of assay: Antitubercular activity against Mycobacterium tuberculosis H37Rv measured after 5 days under aerobic condition by two-fold serial dilution method. The conditions noted are these: 120 h. Type of assay: functional.
The subject of assay [4] is Mycobacterium tuberculosis. Description: Bactericidal activity against Mycobacterium tuberculosis H37Rv measured upto 21 days. It counts as functional. To be noted: 504 h.
The test system of assay [5] is Mycobacterium tuberculosis. Kind of assay: Antitubercular activity against Mycobacterium tuberculosis H37Rv expressing bacterial luciferase infected murine J774 macrophage cells assessed as reduction in cell count at 20 uM measured after 4 days by luminescence analysis. Type of assay: functional.
For assay [6], the system named is Mycobacterium tuberculosis. Description: Antitubercular activity against Mycobacterium tuberculosis H37Rv expressing bacterial luciferase infected murine J774 macrophage cells assessed as reduction in cell count at 200 uM measured after 4 days by luminescence analysis. It counts as functional.

≈ marks a conversion by molar mass, not a printed value.

In assay [1], `CCC(C)[C@@H]1CN([C@H](CNC)Cc2ccccc2)CCN1CCC12CC3CC(CC(C3)C1)C2` (stereo partly drawn) showed an IC50 of 20.2 µM, an IC90 of 35.5 µM and an MIC of 50 µM (≈ 22.6 µg/mL).

As for `CNC[C@@H](Cc1ccccc1)N1CCN(CCC23CC4CC(CC(C4)C2)C3)[C@H](C(C)C)C1`, the MIC amounted to 52.2 µM (≈ 22.8 µg/mL) in assay [2], 14 µM (≈ 6.13 µg/mL) in assay [3] and 50 µM (≈ 21.9 µg/mL) in assay [1]. Also, in assay [4], the minimal bactericidal concentration (MBC) was 114 µM (≈ 49.9 µg/mL). In addition, the Activity in assay [5] was 2.22 log10CFU. In assay [1], this compound yielded an IC50 of 20.7 µM. Moreover, the IC90 in assay [1] was found to be 37 µM.

For `CNC[C@@H](Cc1ccccc1)N1CCN(CCC(c2ccccc2)c2ccccc2)CC1`, the MIC was over 200 µM in assay [2], 69 µM (≈ 29.5 µg/mL) in assay [3] and 52.3 µM (≈ 22.4 µg/mL) in assay [1]. The same compound displayed an MBC in assay [4] of 20 µM (≈ 8.55 µg/mL). The Activity in assay [5] and in assay [6] was 2.4 log10CFU each time. In assay [1], this compound displayed an IC50 of 23 µM. In assay [1], this compound gave an IC90 of over 61 µM.

Consider `CNC[C@@H](Cc1ccccc1)N1CCN(CCC23CC4CC(CC(C4)C2)C3)CC1`, for which the MIC in assay [2] was determined as 74 µM (≈ 29.3 µg/mL); in assay [3], 36 µM (≈ 14.2 µg/mL); in assay [1] it was 61.2 µM (≈ 24.2 µg/mL). The MBC in assay [4] worked out at 100 µM (≈ 39.6 µg/mL). Also, the Activity came out at 0 log10CFU in assay [5] and 2.7 log10CFU in assay [6]. The compound further yielded an IC50 in assay [1] of 38 µM. This compound yielded an IC90 in assay [1] of 99 µM.

In assay [1], `CCCC[C@H](CNC)N1CCN(CCC23CC4CC(CC(C4)C2)C3)[C@H](C(C)CC)C1` (stereo partly drawn) returned an IC50 of 21.2 µM, an IC90 of 33.7 µM and an MIC of 50 µM (≈ 20.9 µg/mL).

In assay [1], `CCC(C)[C@H](CNC)N1CCN(CCC23CC4CC(CC(C4)C2)C3)[C@H](CO)C1` (stereo partly drawn) gave an IC90 of over 100 µM and an MIC of over 100 µM.

In the case of `CC[C@H](C)[C@@H]1CN([C@@H](CNC)Cc2ccccc2)CCN1CC(C)(C)C`, in assay [1], the IC50 was determined as 190 µM, the IC90 was over 200 µM and the MIC is over 200 µM.

Regarding `CCC(C)[C@@H](CNC)N1CCN(CCc2ccc(C)cc2)CC1` (stereo partly drawn), in assay [1], the IC50 was 37 µM, the concentration for an effect of 90% (IC90) was determined as 110 µM and inhibition of growth (MIC) required 93.9 µM (≈ 29.8 µg/mL).

Take `CCC(C)[C@@H]1CN([C@@H](CNC)Cc2ccccc2)CCN1CCC12CC3CC(CC(C3)C1)C2` (stereo partly drawn): the MIC in assay [2] was found to be 9.8 µM (≈ 4.43 µg/mL); in assay [3], 41 µM (≈ 18.5 µg/mL); in assay [1], 37.7 µM (≈ 17 µg/mL). Further, the MBC in assay [4] was 5 µM (≈ 2.26 µg/mL). Further, the Activity in assay [5] and in assay [6] was 2.4 log10CFU in each case. It took 17 µM to reach half-maximal inhibition in assay [1] (IC50). In assay [1], the IC90 stood at 38 µM.

In the case of `CCCC[C@H](CNC)N1CCN(CCC23CC4CC(CC(C4)C2)C3)[C@H](C(C)C)C1`, in assay [1], 47.5 µM corresponded to half-maximal inhibition (IC50), it took 65.5 µM to reach the 90% level (IC90) and the MIC amounted to 100 µM (≈ 40.4 µg/mL).

In the case of `CNC[C@@H](Cc1ccccc1)N1CCN(CC2CCC(C)CC2)[C@H](C(C)C)C1` (stereo partly drawn), in assay [1], the IC90 was found to be 85.5 µM and the MIC was over 100 µM.

Turning to `CCC(C)[C@H](CNC)N1CCN(CCc2c[nH]c3ccccc23)[C@H](C(C)C)C1` (stereo partly drawn), in assay [1], the IC90 was over 100 µM and the MIC was over 100 µM.

In the case of `CCCC[C@@H](CNC)N1CCN(CCc2c[nH]c3ccccc23)[C@H](C(C)C)C1`, in assay [1], the 90% effect level (IC90) was put at 85.3 µM and the MIC was over 100 µM.

In the case of `CNC[C@@H](Cc1ccccc1)N1CCN(CCC23CC4CC(CC(C4)C2)C3)[C@H](CO)C1`, in assay [1], the IC90 is 75.6 µM and the MIC was over 100 µM.

For the compound `CCCC[C@@H](CNC)N1CCN(CCC23CC4CC(CC(C4)C2)C3)[C@H](CO)C1`, in assay [1], the IC90 was 70.6 µM and the MIC is over 100 µM.

In assay [1], `CCCC[C@@H](CNC)N1CCN(CCC23CC4CC(CC(C4)C2)C3)[C@H](C(C)C)C1` showed an IC50 of 51.8 µM, an IC90 of 61.4 µM and a minimal inhibitory concentration (MIC) of 100 µM (≈ 40.4 µg/mL).

In assay [1], `CCC(C)[C@H](CNC)N1CCN(CCC23CC4CC(CC(C4)C2)C3)[C@H](C(C)C)C1` (stereo partly drawn) returned an IC50 of 37.4 µM, an IC90 of 99.5 µM and a minimal inhibitory concentration (MIC) of 100 µM (≈ 40.4 µg/mL).

Turning to `CCCC[C@@H](CNC)N1CCN(CCC23CC4CC(CC(C4)C2)C3)[C@H](C(C)CC)C1` (stereo partly drawn), in assay [1], inhibition was half-maximal at 29.6 µM (IC50), the concentration for an effect of 90% (IC90) stood at 54.2 µM and the minimal inhibitory concentration (MIC) stood at 100 µM (≈ 41.8 µg/mL).

In assay [1], `CNC[C@@H](CO)N1CCN(CCC(c2ccccc2)c2ccccc2)[C@H](CC2CCCCC2)C1` had an IC50 of 22 µM, an IC90 of 50 µM and an MIC of 48.4 µM (≈ 22.4 µg/mL).

In assay [1], `CNC[C@H](Cc1ccccc1)N1CCN(CCC23CC4CC(CC(C4)C2)C3)[C@H](CO)C1` returned an IC50 of 54.6 µM, an IC90 of 66.1 µM and an MIC of 100 µM (≈ 42.6 µg/mL).

With `CNCCN1CCN(CCC23CC4CC(CC(C4)C2)C3)[C@H](C(C)C)C1`, in assay [1], the IC90 is over 100 µM and the MIC was over 100 µM.

As to `CNC[C@@H](CO)N1CCN(CCc2ccc(C)cc2)[C@H](CC2CCCCC2)C1`, in assay [1], the IC50 stood at 67 µM, the 90% effect level (IC90) was put at 160 µM and the MIC was determined as 200 µM (≈ 77.5 µg/mL).

In assay [1], `CNC[C@H](Cc1ccccc1)N1CCN(CCc2c[nH]c3ccccc23)[C@H](C(C)C)C1` gave an IC90 of 88.1 µM and an MIC of over 100 µM.

Regarding `CNC[C@@H](CC(C)C)N1CCN(CCc2ccc(C)cc2)CC1`, in assay [1], the IC50 was over 200 µM, the IC90 is over 200 µM and the MIC was over 200 µM.
